pEC50, pIC50: −log10 of the molar value. Like-named read-outs stand apart in the source and are kept apart here.
Experiments:
[1] = test system: DRG neuron spike discharge triggered by activation of TRPV1 channels by capsaicin; assay: Capsaicin-evoked DRG neuron spike discharge; assay type: cell-based
Description: (§1) For current-clamp recordings in DRG neurons, the patch pipettes were filled with (in mM): 135 KCl, 1 K2ATP, 1 MgATP, 2 EGTA, 1.1 CaCl2, 5 glucose (free [Ca^2+]i=87 nM), 10 HEPES, adjusted with KOH at pH 7.4 (315 mOsm). The external solution contained (in mM): 150 NaCl, 2.5 KCl, 2 CaCl2, 2 MgCl2, 15 glucose, 10 HEPES, adjusted with NaOH at pH 7.4 (325 mOsm). Drug exposure was evoked by rapid application using a fast perfusion system (AutoMate Scientific).
The dual targeting and the synergistic effect of NH91 is further illustrated in FIGS. 17A-B and 18A-B, by its effect on the DRG neuron spike discharge triggered by the activation of TRPV1 channels by 1 μM capsaicin.

[2] = target: T1, recombinant Kv7.2/3 channels (Homo sapiens, UniProt O43525+O43526); assay: Whole-cell patch clamp of recombinant Kv7.2/3 currents in transfected CHO cells; assay type: cell-based; details: for V50 (parameter of potency for Kv7.2/3 At 5 μM): compound at 5 μM, N = 5-12; for pEC50: N = 5-10; for increase of the amplitude of recombinant Kv7.2/3 currents: 5 μM compound, at −40 mV, CHO cells
T1 construct: expressed in transfected cells; host or cells: CHO cells
Description: Chinese hamster ovary CHO cells were grown in Dulbecco's modified Eagle's medium supplemented with 2 mM glutamine, 10% fetal calf serum, and antibiotics. In brief, 40,000 cells seeded on poly-D-lysine-coated glass coverslips (13 mm in diameter) in a 24-multiwell plate were transfected with pIRES-CD8 (0.3 μg) as a marker for transfection with 0.5 μg Kv7.2 and 0.5 μg Kv7.3. Transfection was performed using 3.6 μl of X-tremeGENE 9 (Roche) according to the manufacturer's protocol. For electrophysiology, transfected cells were visualized approximately 40 h after transfection, using the anti-CD8 antibody coated beads method.
(§2) For Kv7.2 potassium current recordings, the patch pipettes were pulled from borosilicate glass (Warner Instrument Corp) with a resistance of 3-7 MΩ, and were filled with (in mM): 130 KCl, 5 Mg ATP, 5 EGTA, 10 HEPES, pH 7.3 (adjusted with KOH), and sucrose was added to adjust osmolarity to 290 mOsmol. The external solution contained (in mM): 140 NaCl, 4 KCl, 1.2 MgCl2, 1.8 CaCl2, 11 glucose, 5.5 HEPES, pH 7.3 (adjusted with NaOH), and sucrose was added to adjust osmolarity to 310 mOsmol. […] For TRPV1 current recordings, the solutions were the same as those used for Kv7.2, except that the extracellular solution contained no CaCl2 to limit desensitization and included 1 mM EGTA and 1 mM MgCl2.
Chinese hamster ovary CHO cells were grown in Dulbecco's modified Eagle's medium supplemented with 2 mM glutamine, 10% fetal calf serum, and antibiotics. In brief, 40,000 cells seeded on poly-D-lysine-coated glass coverslips (13 mm in diameter) in a 24-multiwell plate were transfected with pIRES-CD8 (0.3 μg) as a marker for transfection with 0.5 μg of Kv7.2 and Kv7.3 cDNA plasmids. Transfection was performed using 3.6 μl of X-tremeGENE 9 (Roche) according to the manufacturer's protocol. For electrophysiology, transfected cells were visualized approximately 40 h after transfection, using the anti-CD8 antibody coated beads method. Recordings were performed using the whole cell configuration of the patch clamp technique. Signals were amplified using an Axopatch 200B patch-clamp amplifier (Axon Instruments), sampled at 5 kHz and filtered at 2.4 kHz via a four pole Bessel low pass filter. Data were acquired using pClamp 10.5 software in conjunction with a DigiData 1440A interface. The patch pipettes were pulled from borosilicate glass (Harvard Apparatus) with a resistance of 3-7 megaohms. The intracellular pipette solution contained 130 mM KCl, 5 mM K2-ATP, 5 mM EGTA (or 5 mM BAPTA when indicated), 10 mM HEPES, pH 7.3 (adjusted with KOH), CaCl2 (as needed for different values of free Ca2+ concentration according to MAXCHELATOR software, with sucrose added to adjust osmolarity to 290 mosmol. The external solution contained 140 mM NaCl, 4 mM KCl, 1.8 mM CaCl2, 1.2 mM MgCl2, 11 mM glucose, 5.5 mM HEPES, adjusted with NaOH to pH 7.3 (310 mOsM). Series resistances were compensated (75-90%) and periodically monitored. Data analysis was performed using the Clampfit program (pClamp 10.5; Axon Instruments), Microsoft Excel (Microsoft, Redmond, Wash.), and Prism 5.0 (GraphPad Software, Inc., San Diego, Calif.). Leak subtraction was performed off-line, using the Clampfit program of the pClamp 10.5 software.
The normalized conductance was plotted as a function of the test voltages, for cells in the absence and presence of the drug. Chord conductance (G) was calculated by using the following equation: G=I/(V−Vrev), where I corresponds to the current amplitude measured at the end of the pulse, and Vrev is the calculated reversal potential assumed to be −90 mV in CHO cells. G was estimated at various test voltages (V) and then normalized to a maximal conductance value, Gmax. Activation curves were fitted by one Boltzmann distribution: G/Gmax=1/{1+exp[(V50−V)/s]}, where V50 is the voltage at which the current is half-activated and s is the slope factor.

[3] = target: T2, recombinant TRPV1 channel (Homo sapiens, UniProt Q8NER1); assay: Whole-cell recording of capsaicin-activated recombinant TRPV1 currents in transfected CHO cells; assay type: cell-based
T2 construct: expressed in transfected cells; host or cells: CHO cells
T2 sequence (Q8NER1 whole entry): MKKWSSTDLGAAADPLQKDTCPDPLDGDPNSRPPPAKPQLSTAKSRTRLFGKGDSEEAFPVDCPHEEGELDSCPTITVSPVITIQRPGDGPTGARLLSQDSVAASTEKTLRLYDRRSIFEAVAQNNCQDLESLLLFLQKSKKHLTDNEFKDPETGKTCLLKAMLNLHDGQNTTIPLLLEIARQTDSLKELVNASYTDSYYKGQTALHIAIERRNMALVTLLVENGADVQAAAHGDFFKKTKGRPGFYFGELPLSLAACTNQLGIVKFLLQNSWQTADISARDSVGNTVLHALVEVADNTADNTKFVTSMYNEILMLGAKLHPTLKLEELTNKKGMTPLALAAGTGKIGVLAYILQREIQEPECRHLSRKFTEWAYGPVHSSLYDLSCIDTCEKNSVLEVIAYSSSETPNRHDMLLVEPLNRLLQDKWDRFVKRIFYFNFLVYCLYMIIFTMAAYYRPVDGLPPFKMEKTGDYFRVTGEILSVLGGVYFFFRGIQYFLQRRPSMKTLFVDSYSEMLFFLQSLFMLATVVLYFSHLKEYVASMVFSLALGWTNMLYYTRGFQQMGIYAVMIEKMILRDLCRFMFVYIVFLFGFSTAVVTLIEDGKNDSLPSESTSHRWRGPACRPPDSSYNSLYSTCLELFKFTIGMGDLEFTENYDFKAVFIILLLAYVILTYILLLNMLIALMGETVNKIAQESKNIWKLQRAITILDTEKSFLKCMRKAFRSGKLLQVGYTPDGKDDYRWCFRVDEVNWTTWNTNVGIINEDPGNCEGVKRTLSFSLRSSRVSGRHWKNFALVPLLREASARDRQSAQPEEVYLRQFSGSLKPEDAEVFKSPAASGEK
Description: as §2
Inhibition of recombinant TRPV1 channel was tested as described in Example 2 hereinabove.
TRPV1 whole-cell currents were activated by exposing transfected CHO cells to 0.5 μM capsaicin at a holding potential of −60 mV.
FIG. 9 presents the effect of 5 μM NH66 on recombinant TRPV1 currents activated by 0.1 μM capsaicin (CAP). In FIG. 9 are shown the TRPV1 currents evoked by application of 0.1 μM capsaicin to transfected CHO cells. In the upper panel are shown the currents only evoked by application of 0.1 μM capsaicin; in the middle panel, are shown the currents first evoked by application of 0.1 μM capsaicin+5 μM NH66, then by 0.1 μM capsaicin only.

[4] = test system: nociceptive dorsal root (DRG) sensory neurons; assay: Current-clamp recording of evoked spike discharge in DRG neurons; assay type: cell-based, rat
Description: Inhibition of the evoked spike discharge of nociceptive dorsal root (DRG) sensory neurons was tested as follows:
as §1

cardiac Herg channel = cardiac Herg channel (Homo sapiens, UniProt Q12809); assay: Cardiac channel Herg current recordings
cardiac Herg channel, sequence (Q12809 whole entry): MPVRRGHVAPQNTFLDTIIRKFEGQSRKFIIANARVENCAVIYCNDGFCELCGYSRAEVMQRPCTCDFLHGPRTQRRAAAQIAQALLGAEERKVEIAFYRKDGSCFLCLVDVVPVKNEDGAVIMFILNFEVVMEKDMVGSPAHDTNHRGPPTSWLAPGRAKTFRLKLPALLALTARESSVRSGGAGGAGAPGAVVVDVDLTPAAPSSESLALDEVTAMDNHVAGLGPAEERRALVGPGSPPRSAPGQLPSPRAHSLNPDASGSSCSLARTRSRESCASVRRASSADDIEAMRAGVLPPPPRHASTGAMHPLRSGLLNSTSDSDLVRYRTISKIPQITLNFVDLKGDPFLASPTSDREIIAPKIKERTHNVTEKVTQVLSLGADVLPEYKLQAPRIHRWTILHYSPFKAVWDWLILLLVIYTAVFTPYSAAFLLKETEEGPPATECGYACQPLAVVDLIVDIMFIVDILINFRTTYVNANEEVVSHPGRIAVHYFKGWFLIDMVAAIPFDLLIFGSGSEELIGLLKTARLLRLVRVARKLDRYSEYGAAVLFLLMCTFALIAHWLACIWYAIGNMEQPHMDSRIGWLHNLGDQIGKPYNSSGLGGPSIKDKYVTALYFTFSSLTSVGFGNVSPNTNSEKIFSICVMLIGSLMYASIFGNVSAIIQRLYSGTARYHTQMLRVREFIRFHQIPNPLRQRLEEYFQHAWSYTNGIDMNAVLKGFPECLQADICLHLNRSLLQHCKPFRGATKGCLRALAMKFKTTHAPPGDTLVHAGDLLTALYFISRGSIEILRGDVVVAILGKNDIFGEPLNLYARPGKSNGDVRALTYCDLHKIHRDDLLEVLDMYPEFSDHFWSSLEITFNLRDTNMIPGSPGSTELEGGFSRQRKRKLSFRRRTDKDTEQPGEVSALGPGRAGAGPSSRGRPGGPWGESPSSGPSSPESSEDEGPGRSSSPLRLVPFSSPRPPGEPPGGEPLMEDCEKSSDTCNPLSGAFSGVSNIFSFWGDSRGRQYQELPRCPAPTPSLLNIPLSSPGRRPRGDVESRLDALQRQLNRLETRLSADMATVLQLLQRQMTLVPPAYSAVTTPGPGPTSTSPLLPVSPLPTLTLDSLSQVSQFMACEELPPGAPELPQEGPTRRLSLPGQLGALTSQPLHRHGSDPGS
Description: Cardiac channel Herg current recordings were performed as follows:
Cells were held at −90 mV and stepped for 1.5 s from −70 mV to +30 mV in 10 mV increments and repolarized at −60 mV.

[5] = test system: inward voltage-dependent Ca2+ and Na+ current in DRG neurons; assay: Inward voltage-dependent Ca2+ and Na+ current in DRG neurons; assay type: cell-based; details: 5 μM
[6] = N = 5-10, Retigabine: No effect at 30, read-out: IC50 on TRPV1
[7] = Rattus norvegicus, Neuron, N = 5-10, read-out: IC50 on inhibition of evoked spike discharge in DRG sensory neurons
[8] = DRG neuron, rat DRG neurons, read-out: IC50 of inhibition of evoked spike discharge of nociceptive DRG sensory neurons

Compound: CC(=O)Nc1nc2c(Oc3cc(-c4ccc(C(F)(F)F)cc4)ncn3)cccc2s1 [AMG 517, reference compound]
- inhibition at 0.1 µM ([1]; DRG neuron, read-out: inhibition of capsaicin-evoked DRG spikes): 42%

Compound: O=C(Cc1cc([N+](=O)[O-])cc([N+](=O)[O-])c1Nc1c(Cl)cc([N+](=O)[O-])cc1Cl)NCCO [NH29, reference compound]
- V50 (parameter of potency for Kv7.2/3 At 5 μM) [2]: −27.4 mV
- pIC50 [3, 6]: 5.38
- pIC50 ([4]; Rattus norvegicus, Neuron, read-out: IC50 on inhibition of evoked spike discharge in DRG sensory neurons): 4.74
- pIC50 (cardiac Herg channel): 5.30

Compound: O=C(Cc1ccc(Nc2c(Cl)cc(C(F)(F)F)cc2Cl)cc1)NCCO [NH34, reference compound]
- pEC50 [2]: 4.76
- V50 (parameter of potency for Kv7.2/3 At 5 μM) [2]: −28.1 mV
- pIC50 [3, 6]: 4.26
- pIC50 [4, 7]: 4.60
- pIC50 (cardiac Herg channel): 4.46

Compound: O=C(Cc1cc(Nc2c(Cl)cc(Cl)cc2Cl)ccc1F)NCCO [NH43, reference compound]
- increase of the amplitude of recombinant Kv7.2/3 currents [2]: about 3.5 fold
- pEC50 [2]: 6.22
- V50 (parameter of potency for Kv7.2/3 At 5 μM) [2]: −42.0 mV
- pIC50 [3, 6]: 6.40
- pIC50 [4, 8]: 6.52
- pIC50 [4, 7]: 6.52
- pIC50 (cardiac Herg channel): < 4.22

Compound: CC(C)(O)CNC(=O)Cc1cc(Nc2c(Cl)cc(Cl)cc2Cl)ccc1F [NH66]
- increase of the amplitude of recombinant Kv7.2/3 currents [2]: about 3.5 fold
- pEC50 [2]: 6.00
- V50 (parameter of potency for Kv7.2/3 At 5 μM) [2]: −30.3 mV
- pIC50 ([3]; currents activated by 0.1 μM capsaicin, read-out: IC50 of inhibition of recombinant TRPV1 currents): 6.52
- pIC50 [4, 8]: 6.30
- pIC50 [4, 7]: 6.30
- pIC50 (cardiac Herg channel): < 4.22

Compound: CC(C)(CO)CNC(=O)Cc1cc(Nc2c(Cl)cc(Cl)cc2Cl)ccc1F [NH82]
- pEC50 [2]: 6.30
- V50 (parameter of potency for Kv7.2/3 At 5 μM) [2]: −41.1 mV
- pIC50 [3, 6]: 6.40
- pIC50 [4, 7]: 6.30
- pIC50 (cardiac Herg channel): < 4.00

Compound: CC(C)(O)CCNC(=O)Cc1cc(Nc2c(Cl)cc(Cl)cc2Cl)ccc1F [NH83]
- pEC50 [2]: 6.22
- V50 (parameter of potency for Kv7.2/3 At 5 μM) [2]: −37.3 mV
- pIC50 [3, 6]: 6.10
- effect on DRG evoked spike discharge (in words) [4]: slightly improved activity
- pIC50 [4, 7]: 6.70

Compound: CC(C)c1cc(Cl)cc(Cl)c1Nc1ccc(F)c(CC(=O)NCC(C)(C)O)c1 [NH91]
- effect on amplitude at −40 mV and voltage-dependence of Kv7.2/3 channels (in words) [2]: potently increase the amplitude left-shift the voltage-dependence of activation
- pEC50 [2]: 5.70
- V50 (parameter of potency for Kv7.2/3 At 5 μM) [2]: −42.4 mV
- pIC50 [3, 6]: 7.00
- effect on DRG evoked spike discharge (in words) [4]: prominently inhibits
- pIC50 [4, 7]: 6.00
- inhibition of capsaicin-evoked DRG spike discharge in the presence of XE991 ([1]; Kv7.2/3 channel blocker XE991 10 μM present, n=11): 50%
- effect on inward voltage-dependent Ca2+ and Na+ current in DRG neurons [5]: did not affect
- pIC50 (cardiac Herg channel): < 4.22

Compound: CC(C)(O)CCNC(=O)Cc1cc(Nc2c(Cl)cc(Cl)cc2C2CC2)ccc1F [NH101]
- effect on amplitude at −40 mV and voltage-dependence of Kv7.2/3 channels (in words) [2]: potently increase the amplitude left-shift the voltage-dependence of activation
- pEC50 [2]: 6.70
- V50 (parameter of potency for Kv7.2/3 At 5 μM) [2]: −67.4 mV
- pIC50 [3, 6]: 7.00
- pIC50 [4, 7]: 6.70
- pIC50 (cardiac Herg channel): < 4.30

Compound: O=C(Cc1cc(Nc2c(Cl)cc(Cl)cc2Cl)ccc1F)NC1CCC(O)C1 (stereo not shown) [NH110]
- effect on amplitude at −40 mV and voltage-dependence of Kv7.2/3 channels (in words) [2]: potently increase the amplitude left-shift the voltage-dependence of activation
- pEC50 [2]: 5.14
- V50 (parameter of potency for Kv7.2/3 At 5 μM) [2]: −38.5 mV
- effect on DRG evoked spike discharge (in words) [4]: inhibits
- pIC50 [4, 7]: 6.70

Compound: CCOC(=O)Nc1ccc(NCc2ccc(F)cc2)cc1N [Retigabine, N-(2-amino-4-(4-fluorobenzylamino)-phenyl)carbamic acid ethyl ester, reference compound]
- V50 (parameter of potency for Kv7.2/3 At 5 μM) [2]: −30.4 mV
- IC50 on TRPV1 ([3]; N = 5-10, Retigabine: No effect at 30): No effect
- pIC50 [4, 7]: 5.30
- pIC50 (cardiac Herg channel): < 4.52
